Read-outs that look alike come from different tables or passages of the source.
Tests used:
Test in all cases: microbe, parasite or virus in culture
Type in all cases: cell-based, Hepatitis C virus (HCV)
[1] = test system: HCV replicon 1AY93H; details: Replicon Assay A
In short: (§1)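 Cells seeded 2000/well + compound; 0.5% DMSO, 5% FBS; harvest day 3, lyse. Multiplex TaqMan RT-PCR for replicon (Neo probe) and cyclophilin RNA; amounts from Ct vs log(ng) linear regression of replicon total RNA standards.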

[2] = test system: HCV replicon 1A; details: Replicon Assay A
In short: as §1

[3] = test system: HCV replicon 2B; details: Replicon Assay A
In short: as §1

[4] = test system: HCV replicon 1AQ30D; details: Replicon Assay B
[5] = test system: HCV replicon 1B; details: Replicon Assay B
[6] = read-out: 1A Y93H IC50, HCV replicon 1A Y93H
[7] = read-out: 2B IC50, HCV replicon 2B
[8] = Hepatitis C virus, HCV replicon 1B
[9] = read-out: 1A Y93H IC50, replicon 1AY93H
[10] = read-out: 1A Q30D IC50, replicon 1AQ30D
[11] = Hepatitis C virus, read-out: 1A Y93H IC50 (nM), replicon 1AY93H
[12] = Hepatitis C virus, read-out: 2B IC50 (nM), replicon 2B
[13] = Hepatitis C virus, read-out: 1A Q30D IC50 (nM), replicon 1AQ30D

COC(=O)N[C@H](C(=O)N1C[C@H](F)C[C@H]1c1ncc(-c2ccc3c(c2)cc2n3C(c3cc4ccccc4s3)Oc3cc(-c4cnc([C@@H]5CCCN5C(=O)[C@@H](NC(=O)OC)C5CCOCC5)[nH]4)ccc3-2)[nH]1)C(C)C (single isomer, unassigned) [Compound 625]
IC50 [1, 6]: 0.0049 nM | IC50 ([2]; HCV replicon 1A): 1.9 pM | IC50 [3, 7]: 0.145 nM | IC50 ([4]; Hepatitis C virus, read-out: 1A Q30D IC50, HCV replicon 1A Q30D): 0.359 nM | IC50 [5, 8]: 3.1 pM

COC(=O)NC(C(=O)N1CCC[C@H]1c1ncc(-c2ccc3c(c2)cc2n3C(c3cc4ccccc4s3)Oc3cc(-c4cnc([C@@H]5CCCN5C(=O)[C@@H](NC(=O)OC)C5CCOCC5)[nH]4)cc(F)c3-2)[nH]1)C(C)(C)F (single isomer, unassigned) [Compound 182]
IC50 [1, 9]: 0.044 nM | IC50 ([2]; replicon 1A): 2 pM | IC50 ([3]; read-out: 2B IC50, replicon 2B): 0.005 nM | IC50 [4, 10]: 0.049 nM | IC50 ([5]; Hepatitis C virus, replicon 1B): 2 pM

COC(=O)NC(C(=O)N1CCC[C@H]1c1ncc(-c2ccc3c(c2)cc2n3C(c3ccc(C4CC4)s3)Oc3cc(-c4cnc([C@@H]5CCCN5C(=O)[C@@H](NC(=O)OC)C5CCOCC5)[nH]4)cc(F)c3-2)[nH]1)C(C)(C)F (single isomer, unassigned) [Compound 172]
IC50 [1, 9]: 0.004 nM | IC50 ([2]; replicon 1A): 1.5 pM | IC50 ([3]; read-out: 2B IC50, replicon 2B): 0.005 nM | IC50 [4, 10]: 0.018 nM | IC50 ([5]; Hepatitis C virus, replicon 1B): 1.8 pM

COC(=O)N[C@H](C(=O)N1CCC[C@H]1c1ncc(-c2ccc3c(c2)cc2n3C(c3ccc(C4CC4)s3)Oc3cc(-c4cnc([C@@H]5CCCN5C(=O)[C@@H](NC(=O)OC)C5CCOCC5)[nH]4)cc(C)c3-2)[nH]1)C(C)C (single isomer, unassigned) [Compound 122]
IC50 [1, 9]: 0.007 nM | IC50 ([2]; Hepatitis C virus, replicon 1A): 2 pM | IC50 ([3]; read-out: 2B IC50, replicon 2B): 0.003 nM | IC50 [4, 10]: 0.029 nM | IC50 ([5]; Hepatitis C virus, replicon 1B): 2.3 pM

COC(=O)N[C@H](C(=O)N1CCC[C@H]1c1ncc(-c2cc(C)c3c(c2)OC(c2ccc(C4CC4)s2)n2c-3cc3cc(-c4cnc([C@@H]5C[C@H]6C[C@H]6N5C(=O)[C@@H](NC(=O)OC)C(C)C)[nH]4)ccc32)[nH]1)C(C)C (single isomer, unassigned) [Compound 754]
IC50 [1, 6]: 0.042 nM | IC50 ([2]; Hepatitis C virus, HCV replicon 1A): 2.4 pM | IC50 [3, 7]: 0.039 nM | IC50 ([4]; read-out: 1A Q30D IC50, HCV replicon 1A Q30D): 0.433 nM | IC50 [5, 8]: 2.6 pM

COC(=O)NC(C(=O)N1CCC[C@@H]1c1ncc(-c2ccc3c(c2)cc2n3C(c3ccc(CC4CC4)s3)Oc3cc(-c4cnc([C@@H]5CCCN5C(=O)[C@@H](NC(=O)OC)C(C)C)[nH]4)cc(F)c3-2)[nH]1)C1C[C@@H](C)O[C@@H](C)C1 (stereo partly shown) [Compound 376]
IC50 [1, 11]: 0.0023 nM | IC50 ([2]; Hepatitis C virus, replicon 1A): 2.6 pM | IC50 [3, 12]: 0.006 nM | IC50 [4, 13]: 0.0424 nM | IC50 ([5]; Hepatitis C virus, replicon 1B): 2.9 pM

COC(=O)N[C@H](C(=O)N1CCC[C@H]1c1ncc(-c2cc(F)c3c(c2)OC(c2ccc(C(C)C)s2)n2c-3cc3cc(-c4cnc([C@@H]5CCCN5C(=O)[C@@H](NC(=O)OC)C(C)C)[nH]4)ccc32)[nH]1)C(C)C (single isomer, unassigned) [Compound 36]
IC50 ([1]; replicon 1AY93H, read-out: 1A Y93H IC50): 0.006 nM | IC50 ([2]; replicon 1A): 1.7 pM | IC50 ([3]; replicon 2B, read-out: 2B IC50): 0.053 nM | IC50 ([4]; replicon 1AQ30D, read-out: 1A Q30D IC50): 0.19 nM | IC50 ([5]; replicon 1B): 1.1 pM

CCc1ccc(C2Oc3cc(-c4cnc([C@@H]5CCCN5C(=O)C(NC(=O)OC)C5CCOC(C)(C)C5)[nH]4)cc(F)c3-c3cc4cc(-c5cnc([C@@H]6CCCN6C(=O)[C@@H](NC(=O)OC)C(C)C)[nH]5)ccc4n32)s1 (single isomer, unassigned) [Compound 163]
IC50 [1, 9]: 0.058 nM | IC50 ([2]; replicon 1A): 18.4 pM | IC50 ([3]; read-out: 2B IC50, replicon 2B): 0.063 nM | IC50 [4, 10]: 0.17 nM | IC50 ([5]; replicon 1B): 31.3 pM

COC(=O)N[C@H](C(=O)N1CCC[C@H]1c1ncc(-c2cc(F)c3c(c2)OC(c2ccc(C(C)C)s2)n2c-3cc3cc(-c4cnc([C@@H]5CCCN5C(=O)[C@@H](NC(=O)OC)C(C)C)[nH]4)ccc32)[nH]1)C(C)C (single isomer, unassigned) [Compound 35]
IC50 [1, 11]: 0.62 nM | IC50 ([2]; Hepatitis C virus, replicon 1A): 1.7 pM | IC50 [3, 12]: 1.43 nM | IC50 [4, 13]: 11.5 nM | IC50 ([5]; Hepatitis C virus, replicon 1B): 1.4 pM

COC(=O)NC(C(=O)N1CCC[C@H]1c1ncc(-c2ccc3c(c2)cc2n3C(c3ccc(C4CCC4)s3)Oc3cc(-c4cnc([C@@H]5CCCN5C(=O)[C@@H](NC(=O)OC)C(C)C)[nH]4)cc(F)c3-2)[nH]1)C1C[C@@H](C)O[C@@H](C)C1 (stereo partly shown) [Compound 374]
IC50 [1, 11]: 0.0035 nM | IC50 ([2]; Hepatitis C virus, replicon 1A): 1.5 pM | IC50 [3, 12]: 0.0041 nM | IC50 [4, 13]: 0.0221 nM | IC50 ([5]; Hepatitis C virus, replicon 1B): 2.2 pM

COC(=O)N[C@H](C(=O)N1CCC[C@H]1c1ncc(-c2ccc3c(c2)OC(c2cc4ccccc4s2)n2c-3cc3cc(-c4cnc([C@@H]5CCCN5C(=O)[C@@H](NC(=O)OC)C5CCOCC5)[nH]4)ccc32)[nH]1)C1CCOCC1 (single isomer, unassigned) [Compound 262]
IC50 [1, 9]: 0.052 nM | IC50 ([2]; Hepatitis C virus, replicon 1A): 4.2 pM | IC50 ([3]; read-out: 2B IC50, replicon 2B): 0.019 nM | IC50 [4, 10]: 0.12 nM | IC50 ([5]; Hepatitis C virus, replicon 1B): 4 pM

— US20160257697A1, “THIOPHENE-SUBSTITUTED TETRACYCLIC COMPOUNDS AND METHODS OFUSE THEREOF FOR THE TREATMENT OF VIRAL DISEASES” (priority 2013, published 2016)
